Legend:
[1] = system: phosphorylation of threonine 202 (Thr202) and tyrosine 204 (Tyr204) of ERK; experiment: ERK phosphorylation inhibitory effect by Cell ELISA in AsPC-1 (Test Example 2); assay type: cell-based, human; conditions: Homo sapiens, ASPC1, AsPC-1 cells, cultured overnight with compound; 1 μM trametinib taken as 0%
In short: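 AsPC-1 cells (G12D KRAS) treated overnight with compound (10 points, 10 μM to 0.3 nM final), then glyoxal-fixed and immunostained for phospho-ERK with a fluorescent secondary read at 800 nm. IC50 by Sigmoid-Emax regression, with DMSO as 100% and 1 μM trametinib as 0%.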

[2] = system: human G12D mutant KRAS-positive pancreatic cancer line AsPC-1; experiment: Non-anchorage-dependent cell growth inhibition, spheroid 3D cell culture (Test Example 3); assay type: cell-based; conditions: Homo sapiens, ASPC1, 144 h, AsPC-1 spheroid 3D culture, 6 days, CellTiter Glo 2.0
In short: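 AsPC-1 spheroids, 5×10^2 cells per well on low-adhesion round-bottom plates in RPMI 1640/10% FBS, dosed next day at 10 or 6 points spanning 10 μM to 0.3 nM final for 6 days at 37° C., 5% CO2. Viability by CellTiter Glo 2.0 luminescence; IC50 by Sigmoid-Emax regression, DMSO 100% and cell-free medium 0%.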

KRAS G12D protein = target: T1, KRAS G12D protein (Homo sapiens, UniProt P01116, G12D); experiment: KRAS degradation activity by Cell ELISA in AsPC-1 (Test Example 1); assay type: cell-based; conditions: AsPC-1 cells, cultured overnight with compound, corrected with β-actin, read-out: DC50 (50% degradation concentration of the amounts of KRAS)
T1 construct: host or cells: AsPC-1
T1 sequence (P01116 1-188 isoform P01116-2 G12D): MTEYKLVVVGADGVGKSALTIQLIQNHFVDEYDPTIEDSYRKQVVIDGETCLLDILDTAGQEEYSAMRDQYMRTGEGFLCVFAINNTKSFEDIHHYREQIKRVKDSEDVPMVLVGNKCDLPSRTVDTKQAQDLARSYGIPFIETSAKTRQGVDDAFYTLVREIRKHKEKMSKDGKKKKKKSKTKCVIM
In short: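 AsPC-1 cells (KRAS G12D), 2.0×10^4/well, treated overnight with compound (10 points, 10 μM–0.3 nM final) in RPMI 1640/10% FBS. Fixed cells immunostained for G12D-specific Ras and β-actin, with near-IR fluorescence read. Ras/actin ratio scaled DMSO = 0% and actin-only = 100%, and DC50 fitted by Sigmoid-Emax regression.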

| SMILES | IC50 [1] [nM] | IC50 [2] [nM] | DC50 (KRAS G12D protein) [nM] |
| --- | --- | --- | --- |
| COCCCOc1nc(N(C)[C@H]2CCNC2)c2cc(C3CC3)c(-c3c(C)c(F)cc4[nH]ncc34)c(OCc3ccc(-c4cn([C@H](C(=O)N5C[C@H](O)C[C@H]5C(=O)N[C@@H](CO)c5ccc(-c6scnc6C)cc5)C(C)C)nn4)cc3)c2n1 (atropisomer, axis not shown) [Example 39] | 57 | 39 | 37 |
| CO[C@@H](C)COc1nc(N(C)[C@H]2CCNC2)c2cc(C3CC3)c(-c3c(C)c(F)cc4[nH]ncc34)c(OCc3ccc(-c4cn([C@H](C(=O)N5C[C@H](O)C[C@H]5C(=O)N[C@@H](CO)c5ccc(-n6cncn6)cc5)C(C)C)nn4)cc3)c2n1 (atropisomer, axis not shown) [Example 40] | 7 | 6 | 47 |
| Cc1c(F)cc2[nH]ncc2c1-c1c(C2CC2)cc2c(N(C)[C@H]3CCNC3)nc(OC[C@H]3CCCO3)nc2c1OCc1ccc(-c2cn([C@H](C(=O)N3C[C@H](O)C[C@H]3C(=O)N[C@@H](CO)c3ccc(-n4cncn4)cc3)C(C)C)nn2)cc1 (atropisomer, axis not shown) [Example 41] | 9 | 8 | 29 |
| CO[C@H](COc1nc(N(C)[C@H]2CCNC2)c2cc(C3CC3)c(-c3c(C)c(F)cc4[nH]ncc34)c(OCc3ccc(-c4cn([C@H](C(=O)N5C[C@H](O)C[C@H]5C(=O)N[C@@H](CO)c5ccc(-c6scnc6C)cc5)C(C)C)nn4)cc3)c2n1)C(F)F (atropisomer, axis not shown) [Example 43] | 7 | 6 | 41 |
| CO[C@@H](C)COc1nc(N(C)[C@H]2CCNC2)c2cc(C3CC3)c(-c3c(C)c(F)cc4[nH]ncc34)c(OCc3ccc(-c4cn([C@H](C(=O)N5C[C@H](O)C[C@H]5C(=O)N[C@@H](CO)c5ccc(-c6scnc6C)cc5)C(C)C)nn4)nc3)c2n1 (atropisomer, axis not shown) [Example 45] | 16 | 15 | 27 |
| CO[C@H](CF)COc1nc(N(C)[C@H]2CCNC2)c2cc(C3CC3)c(-c3c(C)c(F)cc4[nH]ncc34)c(OCc3ccc(-c4cn([C@H](C(=O)N5C[C@H](O)C[C@H]5C(=O)N[C@@H](CO)c5ccc(-c6scnc6C)cc5)C(C)C)nn4)cc3)c2n1 (atropisomer, axis not shown) [Example 46] | 6 | 5 | 25 |
| CO[C@@H](CF)COc1nc(N(C)[C@H]2CCNC2)c2cc(C3CC3)c(-c3c(C)c(F)cc4[nH]ncc34)c(OCc3ccc(-c4cn([C@H](C(=O)N5C[C@H](O)C[C@H]5C(=O)N[C@@H](CO)c5ccc(-c6scnc6C)cc5)C(C)C)nn4)cc3)c2n1 (atropisomer, axis not shown) [Example 47] | 22 | 15 | 26 |
| Cc1ncsc1-c1ccc([C@H](CO)NC(=O)[C@@H]2C[C@@H](O)CN2C(=O)[C@H](C(C)C)n2cc(-c3ccc(COc4c(-c5c(C)c(F)cc6[nH]ncc56)c(C5CC5)cc5c(N(C)[C@H]6CCNC6)nc(OC[C@@H](C)F)nc45)cc3)nn2)cc1 (atropisomer, axis not shown) [Example 48] | 15 | 16 | 38 |
| COCC1(COc2nc(N(C)[C@H]3CCNC3)c3cc(C4CC4)c(-c4c(C)c(F)cc5[nH]ncc45)c(OCc4ccc(-c5cn([C@H](C(=O)N6C[C@H](O)C[C@H]6C(=O)N[C@@H](CO)c6ccc(-c7scnc7C)cc6)C(C)C)nn5)cc4)c3n2)CC1 (atropisomer, axis not shown) [Example 49] | 32 | 10 | 25 |
| CO[C@@H](C)COc1nc(N[C@@H]2CCNC2)c2cc(C3CC3)c(-c3c(C)c(F)cc4[nH]ncc34)c(OCc3ccc(-c4cn([C@H](C(=O)N5C[C@H](O)C[C@H]5C(=O)N[C@@H](CO)c5ccc(-c6scnc6C)cc5)C(C)C)nn4)cc3)c2n1 (atropisomer, axis not shown) [Example 51] | 59 | 44 | 14 |

From patent publication US20250206751A1, “HETEROCYCLIC COMPOUND FOR INDUCING DEGRADATION OF G12D MUTANT KRAS PROTEIN” (Astellas Pharma Inc., priority 2022, published 2025)
